Experimental data: patent US11142796B2, “MIR-18B for use as a marker of cancer progression and target for therapies to treat cancer” (SUTTER WEST BAY HOSPITALS, priority 2012, dated 2021)
“Also recorded” adds a separate entry of the source.

What was measured:
[1] = system: MDM2 (and the p53 pathway); experiment: Western blot analysis of MDM2 and p53 pathway proteins; type: cell-based, human
Method: (§1) Cell lysates were prepared in PBS containing 1×Halt protease inhibitor cocktail and 1×Halt phosphatase inhibitor cocktail (Pierce, Rockford, Ill.) centrifuged at 3500 r.p.m. for 10 min at 4° C. Proteins (10-15 ug) from each sample were subjected to SDS/polyacrylamide gel electrophoresis (PAGE) and transferred onto a nitrocellulose membrane. Target proteins were detected by using specific antibodies against MDM2, p53, p21, BCL-2 and GAPDH (Santa Cruz Biotechnology, Santa Cruz, Calif.), and PUMA, BCL-XL (Cell Signaling Technology, Danvers, Mass.).

[2] = system: C8161.9 melanoma cell lines; experiment: Cell survival, MDM2 and p53 expression in mutant p53 cells; type: cell-based, human; conditions: C8161.9 cells harboring mutant p53
Method: (§2) Cell viability, colony formation and flow cytometry analysis were performed as described previously in Dar et al., J Biol Chem 286:16606-14 (2011); and Dar et al., J Invest Dermatol 130:2071-9 (2010)).
as §1

1205-Lu cells [3] = experiment: Apoptosis assay, 1205-Lu; type: cell-based, human
Method: as §2

3′UTR of MDM2 = experiment: Luciferase reporter assay with MDM2-3′UTR; type: cell-based, human
From the text: The 3′-UTR region of MDM2 containing target site sequences complementary to the seed sequence of miR-18b were cloned downstream of the luciferase gene in the pMIR-REPORT luciferase vector (Ambion, Cambridge Mass.), and the resultant vectors were named MDM2-3′UTR. Mutated 3′UTR sequences of MDM2 complementary to miR-18b were cloned in the same vector and the resultant vectors named MDM2-Mut 3′UTR. For reporter assays, cells were transiently transfected with wild-type or mutant reporter plasmid and miR-18b. Firefly luciferase activities were measured by using the Dual Luciferase Assay (Promega, Madison, Wis.) 48 hr after transfection and the results were normalized with Renilla luciferase. Each reporter plasmid was transfected at least three times (on different days) and each sample was assayed in triplicate.

LOX human melanoma cells [4] = experiment: Apoptosis assay, LOX; type: cell-based; conditions: LOX cells transfected with miR-18b
Method: as §2

LOX human melanoma cells [5] = experiment: Cell proliferation, LOX; type: cell-based; conditions: LOX cells transfected with miR-18b
Method: as §2

1205-Lu cells [6] = experiment: Cell cycle analysis (flow cytometry), 1205-Lu; type: cell-based, human
Method: as §2

1205-Lu melanoma cells [7] = experiment: Migration assay (boyden chamber); type: cell-based, human; conditions: miR-18b over-expression; vs cont.miR
Method: (§3) For 1205-Lu cells boyden chamber inserts were coated with 15 μl matrigel at 6 mg/ml protein. For migration assay boyden chamber inserts were not coated and cells were directly added to them.

LOX human melanoma cells [8] = experiment: Colony formation, LOX; type: cell-based; conditions: LOX cells transfected with miR-18b
Method: as §2

[9] = system: E-cadherin, vimentin, N-cadherin and slug; experiment: EMT markers by immunofluorescence and Western blot; type: cell-based, human; conditions: miR-18b overexpression in 1205-Lu
Method: as §1
1205-Lu cells were plated in 8-well plate chamber. Immunofluorescence assay was performed as previously described in Dar et al., Oncogene 28: 866-75 (2009). N-cadherin, vimentin, slug and E-cadherin antibodies (Cell signaling) were used in the assay.

1205-Lu melanoma cells [10] = experiment: Invasion assay (matrigel-coated boyden chamber); type: cell-based, human; conditions: miR-18b over-expression; vs cont.miR
Method: as §3

1205-Lu cells [11] = experiment: Subcutaneous tumor growth of 1205-Lu cells stably expressing miR-18b; type: in vivo, nude mice
Method: 1205-Lu cells were transfected with pEP Null or pEP miR-18b vectors (Cellbiolabs, San Diego Calif.) and selected with puromycin (1 μg/mL). For in-vivo studies as described previously in Dar et al., J Invest Dermatol 130:2071-9 (2010), 1×10^6 cells were injected into nude mice subcutaneously and tumor growth was followed for 24 days. All animal care was in accordance with the institutional guidelines.

1205-Lu cells [12] = experiment: Colony formation assay, 1205-Lu; type: cell-based, human
Method: as §2

chromatin modifications = experiment: Chromatin immunoprecipitation analysis after miR-18b overexpression; type: cell-based, human
Method: Chromatin immunoprecipitation analysis was performed using the EZ-ChIP kit (Upstate Biotechnology, Charlottesville, Va.) according to the manufacturer's directions and as described in Majid et al., Carcinogenesis 30: 662-70 (2009). Antibodies used in the immunoprecipitations were purchased from Upstate Biotechnology and Ambion (Austin, Tex.) and were specific for acetyl histone H3 (06-599), acetyl histone H4 (06-866), dimethyl-histone H3 lysine 4 (07-030), trimethyl-histone H3 lysine 4(07-473), dimethyl-histone H3 lysine 9 (07-441) and trimethyl-histone H3 lysine 9 (ab8898). The immunoprecipitated DNA was eluted in a total volume of 50 μl and 2 μl were used for PCR.

LOX human melanoma cells [13] = experiment: Cell cycle analysis, LOX; type: cell-based; conditions: LOX cells transfected with miR-18b
Method: as §2

1205-Lu cells [14] = experiment: Cell proliferation / viability, 1205-Lu; type: cell-based, human
Method: as §2

miR-18b expression = miR-18b expression by miR qRT-PCR in drug-treated melanoma cells; type: cell-based, human
From the text: The DO4, WM3211, 1205-Lu, C8161.9, WM278 and Lox melanoma cell lines were obtained and propagated as described in Dar et al., J Biol Chem 286:16606-14 (2011). Normal human melanocytes (HEM) were purchased from Lifeline cell technology and grown in LL-0027 media (Lifeline cell technology, Walkersville Md.). Plasmids miRNASelect™ pEP-miR Null control vector (pEP Null), miRNASelect™ pEP-hsa-mir-18b expression vector (pEP miR-18b) (Cell Biolabs Inc, San Diego Calif.) were purchased. TaqMan probes for hsa-miR-18b and negative control pre-miR (cont. miR) were purchased from Applied Biosystems (Foster City, Calif.). Sub-confluent cells (60-70% confluent) were treated with 5-AZA-2′-deoxycytidine (5AZA) (Sigma Aldrich, St. Louis Mo.) dissolved in dimethyl-sulfoxide. Cells treated with vehicle served as control. Transient transfections were carried out by Lipofectamine-2000 (Invitrogen Life Technologies, Carlsbad, Calif.) following the manufacturer's protocol.
Mature miRNAs and other mRNAs were assayed using the TaqMan MicroRNA Assays and Gene Expression Assays (Applied Biosystems), respectively, as previously described in Dar et al., J Biol Chem 286:16606-14 (2011).

[15] = 1205-Lu co-transfection with empty vector or MDM2-expressing vector
[16] = 1205-Lu stably overexpressing miR-18b
[17] = transient miR-18b overexpression
[18] = stable expression of miR-18b, vs control vector
[19] = transient transfection, vs cont.miR

miR-18b: microRNA, mature miR-18b-5p UAAGGUGCAUCUAGUGCAGUUAG (SEQ ID NO:1); transfected or stably expressed from pEP-hsa-mir-18b expression vector (listed as Homo sapiens)
gene expression (MDM2, p53 pathway) [1, 15]: suppression of MDM2, activation of the p53 pathway | MDM2 expression [1, 16]: significantly downregulated | expression of p53 and PUMA [1, 16]: concomitant increase | p14ARF expression ([1]; following miR-18b overexpression): unchanged | MDM2 at the protein level [1, 17]: significantly suppressed | anti-apoptotic genes BCL2 and BCL-XL [1, 17]: downregulation | pro-apoptotic genes p53 and PUMA [1, 17]: concomitant upregulation | cell survival, MDM2 and p53 expression levels [2]: no effect | apoptotic index (1205-Lu cells [3]; stable expression of miR-18b): significant increase | apoptosis (1205-Lu cells [3]; transient overexpression, cont.miR 2.87%, p<0.01): 11.30% | reporter activity, mutant 3′UTR (3′UTR of MDM2; MDM2-Mut 3′UTR, 1205-Lu and LOX cells): no effect | reporter expression, MDM2-3′UTR construct (3′UTR of MDM2; transient co-transfection into 1205-Lu and LOX cells, 48 hr, vs control vector): significant decrease | apoptosis (LOX human melanoma cells [4]): increase | cell proliferation (LOX human melanoma cells [5]): significant decrease | cells in S-phase (1205-Lu cells [6]; [18]): significant decreases | cells in S-phase (1205-Lu cells [6]; transient overexpression, cont.miR 15.5%, p<0.02): 8.05% | migratory ability (1205-Lu melanoma cells [7]): significantly suppressed | colony formation (LOX human melanoma cells [8]): significant decrease | epithelial biomarker E-cadherin [9]: significant upregulation | mesenchymal markers vimentin, N-cadherin and slug [9]: reduced | invasiveness (1205-Lu melanoma cells [10]): significantly suppressed | tumor growth in vivo (1205-Lu cells [11]; subcutaneous inoculation into nude mice, followed for 24 days, vs control vector cells): significantly suppressed | MDM2 at the protein level in tumors (1205-Lu cells [11]; subcutaneous tumors, vs control tumors): suppressed | colony formation (1205-Lu cells [12]; [18]): significant decreases | colony formation ability (1205-Lu cells [12]; [19]): low colony formation ability | active chromatin modifications (acetylated histones H3, H4 and H3 di-methylated lysine 4) (chromatin modifications): enrichment | repressive chromatin modifications (2H3K9 and 3H3K9) (chromatin modifications): suppression | S-phase (LOX human melanoma cells [13]): significant decrease | melanoma cell survival (1205-Lu cells [14]; [15]): suppressed melanoma cell survival | cell proliferation with BRAF inhibitor (1205-Lu cells [14]; 1205-Lu transfected with miR-18b vs Neg-miR, treated with dabrafenib, 48 hrs): sensitized melanoma cell lines to BRAF specific inhibitor; also recorded: additive effect | sensitivity to cisplatin cytotoxicity (1205-Lu cells [14]; melanoma cells treated with miR-18b): enhanced sensitivity | cell proliferation (1205-Lu cells [14]; [18]): significantly suppressed | cell proliferation over time (1205-Lu cells [14]; [19]): significantly decreased

Nc1ncn([C@H]2C[C@H](O)[C@@H](CO)O2)c(=O)n1 [5AZA, 5-AZA-2′-deoxycytidine]
miR-18b expression (miR-18b expression; five melanoma cell lines (C8161.9, LOX, 1205-Lu, DO4, WM278), 5AZA 5 μM, vs vehicle): significant upregulation

N.N.[Cl][Pt][Cl] [cisplatin]
miR-18b expression (miR-18b expression; 1205-Lu cells, 2 nM cisplatin for 48 hr, vs vehicle-treated cells): significantly upregulated | miR-18b expression (miR-18b expression; 1205-Lu cells, 2 nM cisplatin for 48 hr, vs vehicle-treated cells, listed as Cisplatin): induced expression of miR-18b
